According to publication PMC12969314 (European journal of medicinal chemistry, 2022):

How the values were obtained:
[1] = biological target: T1, D4 receptor (Homo sapiens, UniProt P21917); format: binding
T1 sequence (P21917 1-419): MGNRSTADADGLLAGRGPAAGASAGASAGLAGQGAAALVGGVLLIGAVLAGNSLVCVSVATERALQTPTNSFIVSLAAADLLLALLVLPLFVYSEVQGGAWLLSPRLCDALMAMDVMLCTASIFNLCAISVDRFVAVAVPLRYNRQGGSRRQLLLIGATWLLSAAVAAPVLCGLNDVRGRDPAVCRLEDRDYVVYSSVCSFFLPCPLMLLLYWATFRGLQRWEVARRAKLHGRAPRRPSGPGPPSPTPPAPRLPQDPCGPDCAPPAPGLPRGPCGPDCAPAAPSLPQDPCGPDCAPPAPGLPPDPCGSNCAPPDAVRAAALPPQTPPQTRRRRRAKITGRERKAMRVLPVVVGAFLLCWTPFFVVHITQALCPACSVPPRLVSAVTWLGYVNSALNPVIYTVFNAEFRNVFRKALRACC

[2] = Human liver microsomal intrinsic clearance; format: in vitro ADME; conditions: for CLint scaled / Predicted hepatic clearance hCLHEP: human; for CLint scaled: liver microsomes, Intrinsic clearance hCLINT; for Predicted hepatic clearance hCLHEP: well-stirred organ CL model, binding terms excluded
[3] = Mouse liver microsomal intrinsic clearance; format: in vitro ADME; conditions: for CLint scaled: liver microsomes; for Predicted hepatic clearance mCLHEP: well-stirred organ CL model, binding terms excluded
[4] = biological target: σ2 receptor (Homo sapiens, UniProt Q5BJF2); test: σ2 receptor radioligand binding, [3H]DTG, HEK293 membranes; conditions: ratio, σ1 over σ2
[5] = Mouse plasma protein binding, equilibrium dialysis; format: in vitro ADME

Chain of σ2 receptor (Q5BJF2 whole entry, species assumed): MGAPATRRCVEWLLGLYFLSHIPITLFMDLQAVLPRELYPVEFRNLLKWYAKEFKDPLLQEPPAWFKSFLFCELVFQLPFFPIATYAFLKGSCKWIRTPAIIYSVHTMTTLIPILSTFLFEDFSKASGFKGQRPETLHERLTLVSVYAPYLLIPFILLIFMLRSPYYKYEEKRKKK

Compound | CLint scaled ([2]; human liver microsomes) [mL/min/kg] | Predicted hepatic clearance hCLHEP [2] [mL/min/kg] | CLint scaled [3] [mL/min/kg] | Predicted hepatic clearance mCLHEP [3] [mL/min/kg] | other results
c1ccc(OC[C@@H]2CN(Cc3ccc4[nH]ccc4c3)CCO2)cc1 [Compound 4] | – | – | – | – | selectivity for D4 versus σ1 ([1]; D4 over σ1): ~ 13 fold
Cn1cnc2cc(CN3CCC(OCc4ccc(Cl)c(F)c4)CC3)ccc21 [Compound 11b, 5-((4-((4-chloro-3-fluorobenzyl)oxy)piperidin-1-yl)methyl)-1-methyl-1H-benzo[d]imidazole] | < 20 | <10 | < 20 | <16 | –
Fc1cc(COC2CCN(Cc3ccc4[nH]ncc4c3)CC2)ccc1Cl [Compound 12b, 5-((4-((4-chloro-3-fluorobenzyl)oxy)piperidin-1-yl)methyl)-1H-indazole] | < 30 | 11.5 | 72 | 40.0 | Intrinsic clearance hCLINT ([2]; human liver microsomes): 26.8 mL/min/kg
Cn1ncc2cc(CN3CCC(OCc4ccc(F)c(F)c4)CC3)ccc21 [Compound 13a, 5-((4-((3,4-difluorobenzyl)oxy)piperidin-1-yl)methyl)-1-methyl-1H-indazole] | – | 12.5 | – | 48.2 | –
Cn1ncc2cc(CN3CCC(OCc4ccc(Cl)c(F)c4)CC3)ccc21 [Compound 13b, 5-((4-((4-chloro-3-fluorobenzyl)oxy)piperidin-1-yl)methyl)-1-methyl-1H-indazole] | – | 13.7 | – | 43.8 | –
Cn1ncc2cc(CN3CCC(OCc4cccc(C(F)(F)F)c4)CC3)ccc21 [Compound 13c, 1-Methyl-5-((4-((3-(trifluoromethyl)benzyl)oxy)piperidin-1-yl)methyl)-1H-indazole] | – | 15.3 | – | 43.8 | –
Cc1ccccc1CO[C@H]1CCCN(Cc2ccc3c(cnn3C)c2)C1 [Compound 13g, (S)-1-methyl-5-((3-((2-methylbenzyl)oxy)piperidin-1-yl)methyl)-1H-indazole] | 334 | 19.0 | 545 | 77.3 | –
Fc1ccc(COC2CCN(Cc3cc4ccc(Cl)cc4[nH]3)CC2)cc1F [Compound 14a, 6-chloro-2-((4-((3,4-difluorobenzyl)oxy)piperidin-1-yl)methyl)-1H-indole] | < 30 | 10.8 | – | 43.3 | –
Cc1nc(CN2CCC(OCc3ccc(Cl)c(F)c3)CC2)c2ccccn12 [Compound 16b, 1-((4-((4-chloro-3-fluorobenzyl)oxy)piperidin-1-yl)methyl)-3-methylimidazo[1,5-a]pyridine] | 130 | 17.4 | 199 | 62.0 | –
Fc1ccc(COC2CCN(Cc3cn4ccccc4n3)CC2)cc1F [Compound 17a, 2-((4-((3,4-difluorobenzyl)oxy)piperidin-1-yl)methyl)imidazo[1,2-a]pyridine] | – | <10 | – | 57.4 | –
Fc1cc(COC2CCN(Cc3cn4ccccc4n3)CC2)ccc1Cl [Compound 17b, 2-((4-((4-chloro-3-fluorobenzyl)oxy)piperidin-1-yl)methyl)imidazo[1,2-a]pyridine] | – | 13.8 | – | 46.7 | –
FC(F)(F)c1cccc(COC2CCN(Cc3cn4ccccc4n3)CC2)c1 [Compound 17c, 2-((4-((3-(trifluoromethyl)benzyl)oxy)piperidin-1-yl)methyl)imidazo[1,2-a]pyridine] | 69.3 | 15.6 | 150 | 56.3 | –
c1cncc(COC2CCN(Cc3cn4ccccc4n3)CC2)c1 [Compound 17e, 2-((4-(pyridin-3-ylmethoxy)piperidin-1-yl)methyl)imidazo [1,2-a]pyridine] | – | – | – | – | Ki [1]: 2.29 µM
Fc1ccc(OC[C@@H]2CN(Cc3cn4ccccc4n3)CCO2)cc1F [Compound 17k, (S)-2-((3,4-difluorophenoxy)methyl)-4-(imidazo[1,2-a]pyridin-2-ylmethyl)morpholine] | 42.1 | 13.6 | 321 | 70.3 | –
Cc1c(Cl)cccc1NC(=O)CN1CCC(OCc2ccc(F)c(F)c2)CC1 [Compound 18a, N-(3-chloro-2-methylphenyl)-2-(4-((3,4-difluorobenzyl)oxy)piperidin-1-yl)acetamide] | – | 17.6 | – | 68.6 | –
Cc1cc(NC(=O)CN2CCC(OCc3ccc(F)c(F)c3)CC2)ccc1F [Compound 18d, 2-(4-((3,4-difluorobenzyl)oxy)piperidin-1-yl)-N-(4-fluoro-3-methylphenyl)acetamide] | – | 14.3 | – | 69.6 | selectivity σ1:σ2 [4]: ~ 1.4; Stability in mouse plasma (mPPB column) [5]: c
COc1ccc(CN2CCC[C@H](OCc3ccc(F)c(C)c3)C2)cc1F [Compound 19a, (S)-3-((4-fluoro-3-methylbenzyl)oxy)-1-(3-fluoro-4-methoxybenzyl)piperidine] | 964 | 19.7 | > 2400 | 86.8 | –
COc1ccc(CN2CCC[C@H](OCc3ccc(C)cc3)C2)cc1F [Compound 19e, (S)-1-(3-fluoro-4-methoxybenzyl)-3-((4-methylbenzyl)oxy)piperidine] | 1130 | 19.7 | 1190 | 83.7 | –
Cc1c(Cl)cccc1NC(=O)CN1CCC2(CCCN2Cc2ccc(F)c(F)c2)CC1 [Compound 24a, N-(3-chloro-2-methylphenyl)-2-(1-(3,4-difluorobenzyl)-1,8-diazaspiro[4.5]decan-8-yl)acetamide] | – | – | – | – | Ki [1]: > 10 µM
Cc1cc(NC(=O)CN2CCC3(CCCN3Cc3ccc(F)c(F)c3)C2)ccc1F (stereo not drawn) [Compound 24e, 2-(1-(3,4-difluorobenzyl)-1,7-diazaspiro[4.4]nonan-7-yl)-N-(4-fluoro-3-methylphenyl)acetamide] | – | – | – | – | Ki [1]: > 10 µM
Cc1cc(NC(=O)CN2CCC3(CCCN(Cc4ccc(F)c(F)c4)C3)C2)ccc1F (stereo not drawn) [Compound 24f, 2-(7-(3,4-difluorobenzyl)-2,7-diazaspiro[4.5]decan-2-yl)-N-(4-fluoro-3-methylphenyl)acetamide] | 602 | 19.5 | 855 | 81.5 | Ki [1]: > 10 µM; Stability in mouse plasma (mPPB column) [5]: c
Fc1ccc(CN2CCCC3(CCN(Cc4cc5ccc(Cl)cc5[nH]4)C3)C2)cc1F (stereo not drawn) [Compound 25c, 2-((6-chloro-1H-indol-2-yl)methyl)-7-(3,4-difluorobenzyl)-2,7-diazaspiro[4.5]decane] | – | – | – | – | Ki [1]: > 10 µM
